Results taken from ChEMBL document CHEMBL5344424, “3-Hydroxypyridin-4(1H)-one Derivatives as pqs Quorum Sensing Inhibitors Attenuate Virulence and Reduce Antibiotic Resistance in Pseudomonas aeruginosa” (J Med Chem, 2023).
Calls of active or inactive are those of the source. The calls are words filed in the database; no cut-off is given here.

What was measured:
Pseudomonas aeruginosa [1] = assay: Anti-motility activity against Pseudomonas aeruginosa PAO1 assessed as reduction in swarming incubated for 16 hrs by crystal violet staining analysis; type: functional, organism-based
Pseudomonas aeruginosa [2] = assay: Antibacterial activity against Pseudomonas aeruginosa PAO1 assessed as inhibition of biofilm formation incubated for 24 hrs by crystal violet staining analysis; type: functional, organism-based
[3] = Inhibition of quorum sensing system in Pseudomonas aeruginosa PAO1 assessed as inhibition of pyocyanin production at 10 uM incubated for 24 hrs by optical density based analysis relative to control
Pseudomonas aeruginosa [4] = assay: Synergistic antibacterial activity against Pseudomonas aeruginosa PAO1 assessed as reduction in bacterial viability at 10 uM incubated for 24 hrs in presence of ciprofloxacin at 1/2 to 1/8 times of MIC; type: functional, organism-based
Vero [5] = assay: Cytotoxicity against African green monkey Vero cells at 100 uM incubated for 24 hrs by MTT assay; type: toxicity, cell-based; details: chlorocebus sabaeus
Pseudomonas aeruginosa [6] = assay: Anti-motility activity against Pseudomonas aeruginosa PAO1 assessed as reduction in swimming incubated for 16 hrs by crystal violet staining analysis; type: functional, organism-based
[7] = Toxicity in Caenorhabditis elegans assessed as effect on survival at 100 uM incubated for 60 hrs by bright-field microscopy
[8] = Inhibition of quorum sensing system in Pseudomonas aeruginosa PAO1 assessed as inhibition of pyocyanin production incubated for 24 hrs by optical density based analysis
Pseudomonas aeruginosa [9] = assay: Inhibition of iron homeostasis in Pseudomonas aeruginosa PAO1 assessed as decrease in pyochelin production at 1.25 to 20 uM incubated for 24 hrs by fluorescence based microplate reader analysis; type: functional, organism-based; details: dose 1.25-20 µM
Pseudomonas aeruginosa [10] = assay: Synergistic antibacterial activity against Pseudomonas aeruginosa PAO1 infected in Caenorhabditis elegans assessed as worm survival rate at 50 uM incubated for 72 hrs in presence of tobramycin by bright-field microscopy relative to control; type: functional
Pseudomonas aeruginosa [11] = assay: Antivirulence activity against Pseudomonas aeruginosa clinical isolate FB assessed as reduction of pyocyanin production at 10 uM incubated for 24 hrs by optical density based analysis relative to control; type: functional; design: scale not given: the % may be the effect or the level left
Pseudomonas aeruginosa [12] = assay: Synergistic antibacterial activity against Pseudomonas aeruginosa clinical isolate 1129 assessed as reduction in bacterial viability at 10 uM incubated for 24 hrs in presence of tobramycin at 1/2 to 1/8 times of MIC; type: functional, organism-based
Pseudomonas aeruginosa [13] = assay: Synergistic antibacterial activity against Pseudomonas aeruginosa clinical isolate 1121 assessed as reduction in bacterial viability at 10 uM incubated for 24 hrs in presence of ciprofloxacin at 1/2 to 1/8 times of MIC; type: functional, organism-based
Pseudomonas aeruginosa [14] = assay: Synergistic antibacterial activity against Pseudomonas aeruginosa clinical isolate 1167 assessed as reduction in bacterial viability at 10 uM incubated for 24 hrs in presence of ciprofloxacin at 1/2 to 1/8 times of MIC; type: functional, organism-based
Pseudomonas aeruginosa [15] = assay: Synergistic antibacterial activity against Pseudomonas aeruginosa clinical isolate 1121 assessed as reduction in bacterial viability at 10 uM incubated for 24 hrs in presence of tobramycin at 1/2 to 1/8 times of MIC; type: functional, organism-based
Pseudomonas aeruginosa [16] = assay: Synergistic antibacterial activity against Pseudomonas aeruginosa PAO1 assessed as reduction in bacterial viability at 10 uM incubated for 24 hrs in presence of tobramycin at 1/2 to 1/8 times of MIC; type: functional, organism-based
[17] = Inhibition of quorum sensing system in Pseudomonas aeruginosa PAO1 transfected with GFP reporter assessed as decrease in GFP fluorescence expression at 1.25 to 10 uM incubated for 16 hrs by microplate reader assay; details: dose 1.25-10 µM
Pseudomonas aeruginosa [18] = assay: Antibacterial activity against Pseudomonas aeruginosa PAO1 infected in Caenorhabditis elegans assessed as increase in worm survival by measuring survival time at 50 uM by bright-field microscopy; type: functional
Pseudomonas aeruginosa [19] = assay: Antivirulence activity against Pseudomonas aeruginosa PA14 assessed as reduction of pyocyanin production at 10 uM incubated for 24 hrs by optical density based analysis relative to control; type: functional; design: scale not given: the % may be the effect or the level left
Pseudomonas aeruginosa [20] = assay: Antivirulence activity against Pseudomonas aeruginosa clinical isolate 1121 assessed as reduction of pyocyanin production at 10 uM incubated for 24 hrs by optical density based analysis relative to control; type: functional; design: scale not given: the % may be the effect or the level left
[21] = Inhibition of quorum sensing system in Pseudomonas aeruginosa PAO1 assessed as inhibition of pyocyanin production at 0.625 uM incubated for 24 hrs by optical density based analysis relative to control
Pseudomonas aeruginosa [22] = assay: Synergistic antibacterial activity against Pseudomonas aeruginosa clinical isolate 1129 assessed as reduction in bacterial viability at 10 uM incubated for 24 hrs in presence of ciprofloxacin at 1/2 to 1/8 times of MIC; type: functional, organism-based
Pseudomonas aeruginosa [23] = assay: Anti-motility activity against Pseudomonas aeruginosa PAO1 assessed as reduction in twitching incubated for 16 hrs by crystal violet staining analysis; type: functional, organism-based
Pseudomonas aeruginosa [24] = assay: Synergistic antibacterial activity against Pseudomonas aeruginosa PAO1 infected in Caenorhabditis elegans assessed as worm survival rate at 10 uM incubated for 72 hrs in presence of tobramycin by bright-field microscopy relative to control; type: functional
Pseudomonas aeruginosa [25] = assay: Synergistic antibacterial activity against Pseudomonas aeruginosa PAO1 infected in Caenorhabditis elegans assessed as worm survival rate at 50 uM incubated for 72 hrs in presence of ciprofloxacin by bright-field microscopy relative to control; type: functional
Pseudomonas aeruginosa [26] = assay: Synergistic antibacterial activity against Pseudomonas aeruginosa clinical isolate 1167 assessed as reduction in bacterial viability at 10 uM incubated for 24 hrs in presence of tobramycin at 1/2 to 1/8 times of MIC; type: functional, organism-based
[27] = Binding affinity to recombinant PqsR LBD (94 to 332 residues) (unknown origin) expressed in Escherichia coli BL21 (DE3) assessed as dissociation constant by isothermal titration calorimetry
[28] = Inhibition of quorum sensing system in Pseudomonas aeruginosa PAO1 transfected with pqsA-gfp reporter assessed as decrease in GFP fluorescence expression incubated for 16 hrs by microplate reader assay
[29] = Inhibition of quorum sensing system in Pseudomonas aeruginosa PAO1 assessed as inhibition of rhamnolipid production at 0.625 to 20 uM incubated for 24 hrs by optical density based analysis; details: dose 0.625-20 µM
Pseudomonas aeruginosa [30] = assay: Antibacterial activity against Pseudomonas aeruginosa PAO1 infected in Caenorhabditis elegans assessed as worm survival rate at 0.125 ug/ml incubated for 72 hrs by bright-field microscopy relative to control; type: functional
[31] = Inhibition of quorum sensing system in Pseudomonas aeruginosa PAO1 transfected with rhlA-gfp reporter assessed as decrease in GFP fluorescence expression at 0.625 to 10 uM incubated for 16 hrs by microplate reader assay; details: dose 0.625-10 µM
Pseudomonas aeruginosa [32] = assay: Antibacterial activity against Pseudomonas aeruginosa PAO1 assessed as inhibition of biofilm formation at 50 uM incubated for 24 hrs by crystal violet staining analysis relative to control; type: functional; design: scale not given: the % may be the effect or the level left
Pseudomonas aeruginosa [33] = assay: Antibacterial activity against Pseudomonas aeruginosa PAO1 infected in Caenorhabditis elegans assessed as increase in worm survival by measuring survival time at 10 uM by bright-field microscopy; type: functional
Pseudomonas aeruginosa [34] = assay: Synergistic antibacterial activity against Pseudomonas aeruginosa PAO1 infected in Caenorhabditis elegans assessed as worm survival rate at 10 uM incubated for 72 hrs in presence of ciprofloxacin by bright-field microscopy relative to control; type: functional
[35] = Inhibition of quorum sensing system in Pseudomonas aeruginosa PAO1 assessed as inhibition of elastase production at 10 uM incubated for 24 hrs by elastin-congo red dye based optical density based analysis relative to control
[36] = Metal chelating activity assessed as compound-Fe3+ complex formation by measuring fluorescence signal by fluorescence spectrophotometry
Vero [37] = assay: Cytotoxicity against African green monkey Vero cells at 1.56 to 50 uM incubated for 24 hrs by MTT assay; type: toxicity, cell-based; details: chlorocebus sabaeus, dose 1.56-50 µM
Pseudomonas aeruginosa [38] = assay: Synergistic antibacterial activity against Pseudomonas aeruginosa clinical isolate FB assessed as reduction in bacterial viability at 10 uM incubated for 24 hrs in presence of ciprofloxacin at 1/2 to 1/8 times of MIC; type: functional, organism-based
Pseudomonas aeruginosa [39] = assay: Synergistic antibacterial activity against Pseudomonas aeruginosa clinical isolate FB assessed as reduction in bacterial viability at 10 uM incubated for 24 hrs in presence of tobramycin at 1/2 to 1/8 times of MIC; type: functional, organism-based
[40] = Inhibition of quorum sensing system in Pseudomonas aeruginosa PAO1 transfected with lasB-gfp reporter assessed as decrease in GFP fluorescence expression at 0.625 to 10 uM incubated for 16 hrs by microplate reader assay; details: dose 0.625-10 µM
Pseudomonas aeruginosa [41] = assay: Inhibition of iron homeostasis in Pseudomonas aeruginosa PAO1 assessed as decrease in pyoverdine production at 5 to 20 uM incubated for 24 hrs by fluorescence based microplate reader analysis; type: functional, organism-based; details: dose 5-20 µM
Pseudomonas aeruginosa [42] = assay: Antibacterial activity against Pseudomonas aeruginosa PAO1 infected in Caenorhabditis elegans assessed as worm survival rate at 2.5 ug/ml incubated for 60 hrs by bright-field microscopy relative to control; type: functional
Pseudomonas aeruginosa [43] = assay: Synergistic antibacterial activity against Pseudomonas aeruginosa PAO1 infected in Caenorhabditis elegans assessed as worm survival rate at 2.5 ug/ml incubated for 72 hrs in presence of compound 16e by bright-field microscopy relative to control; type: functional

## Cc1cc(=O)c(O)c(CNCc2cn(-c3ccc(Oc4ccccc4)cc3)nn2)n1C
Pseudomonas aeruginosa [1]
  Activity: Dose-Dependent Effect
Pseudomonas aeruginosa [2]
  Activity: Dose-Dependent Effect
[3]
  inhibition: 69.9%
Pseudomonas aeruginosa [4]
  Activity: Active
Vero [5]
  Activity: Toxic
Pseudomonas aeruginosa [6]
  Activity: Dose-Dependent Effect
[7]
  Activity: Non-Toxic
[8]
  IC50: 2.7 µM
Pseudomonas aeruginosa [9]
  inhibition: inactive
Pseudomonas aeruginosa [10]
  survival at 50 µM: 82.3%
Pseudomonas aeruginosa [11]
  Activity: 32.2%
Pseudomonas aeruginosa [12]
  Activity: Active
Pseudomonas aeruginosa [13]
  Activity: Active
Pseudomonas aeruginosa [14]
  Activity: inactive
Pseudomonas aeruginosa [15]
  Activity: Active
Pseudomonas aeruginosa [16]
  Activity: Active
[17]
  inhibition: inactive
Pseudomonas aeruginosa [18]
  Survival: 36 h
Pseudomonas aeruginosa [19]
  Activity: 50.9%
Pseudomonas aeruginosa [20]
  Activity: 41.1%
[21]
  inhibition: 30%
Pseudomonas aeruginosa [22]
  Activity: Active
Pseudomonas aeruginosa [23]
  Activity: Dose-Dependent Effect
Pseudomonas aeruginosa [24]
  survival at 10 µM: 46.7%
Pseudomonas aeruginosa [25]
  survival at 50 µM: 87.1%
Pseudomonas aeruginosa [26]
  Activity: inactive
[27]
  Kd: 1.1 µM
[28]
  IC50: 3.7 µM
[29]
  inhibition: inactive
Pseudomonas aeruginosa [30]
  survival at 0.125 µg/mL: 13.1%
[31]
  inhibition: inactive
Pseudomonas aeruginosa [32]
  Activity: ~50%
Pseudomonas aeruginosa [33]
  Survival: 30 h
Pseudomonas aeruginosa [34]
  survival at 10 µM: 35.7%
[35]
  inhibition: 26.7%
[36]
  Activity: 22.4
Vero [37]
  Activity: Non-Toxic
Pseudomonas aeruginosa [38]
  Activity: Active
Pseudomonas aeruginosa [39]
  Activity: Active
[40]
  inhibition: Active
Pseudomonas aeruginosa [41]
  inhibition: inactive

## NC[C@H]1O[C@H](O[C@H]2[C@H](O)[C@@H](O[C@H]3O[C@H](CO)[C@@H](O)[C@H](N)[C@H]3O)[C@H](N)C[C@@H]2N)[C@H](N)C[C@@H]1O [TOBRAMYCIN]
Pseudomonas aeruginosa [42]
  survival at 2.5 µg/mL: 18.1%
Pseudomonas aeruginosa [43]
  survival at 2.5 µg/mL: 46.7%
